Molecules are shown by their SMILES.

The first assay relates to Her2. Description: Degradation of Her2 in BT-474 cells, Western blot (Method 1). The format is cell-based, human. The following applies: 0.5 μM, overnight. How it is done: Human high-Her2 breast carcinoma BT474 (HTB-20), SK-BR-3 (HTB-30) and MCF-7 breast carcinoma (HTB-22) from American Type Culture Collection, VA, USA were grown in Dulbecco's modified Eagle's medium with 4 mM L-glutamine and antibiotics (100 IU/ml penicillin and 100 ug/ml streptomycine;GibcoBRL). To obtain exponential cell growth, cells were trypsinized, counted and seeded at a cell density of 0.5×10^6 cells/ml regularly, every 3 days. All experiments were performed on day 1 after cell passage.
BT-474 cells are treated with 0.5 μM, 2 μM, or 5 μM of 17AAG (a positive control) or 0.5 μM, 2 μM, or 5 μM of a compound of the invention overnight in DMEM medium. After treatment, each cytoplasmic sample is prepared from 1×10^6 cells by incubation of cell lysis buffer (#9803, cell Signaling Technology) on ice for 10 minutes. The resulting supernatant used as the cytosol fractions is dissolved with sample buffer for SDS-PAGE and run on a SDS-PAGE gel, blotted onto a nitrocellulose membrane by using semi-dry transfer. Non-specific binding to nitrocellulose is blocked with 5% skim milk in TBS with 0.5% Tween at room temperature for 1 hour, then probed with anti-Her2/ErB2 mAb (rabbit IgG, #2242, Cell Signaling) and anti-Tubulin (T9026, Sigma) as housekeeping control protein. […]
(In general: Immunoblotting shows a protein as a band on a membrane.)
On to `C=CCNC1=C2C[C@@H](C)C[C@H](OC)[C@H](O)[C@@H](C)/C=C(\C)[C@H](OC(N)=O)[C@@H](OC)/C=C\C=C(/C)C(=O)NC(=CC1=O)C2=O` [Compound 17AAG, 17-allylamino-17-demethoxygeldanamycin], for which the “Degradation of Her2” value is given as “partial degradation”.

A further assay has as its system Hsp90. Description: IC50 of compounds of the invention (Table 2; Her2 degradation Method 2, MV-4-11 cell survival, Cell Counting Kit-8). The format is cell-based, human. The following applies: text calls it IC50 for Her2 degradation; Method 2: MV-4-11 cells, 72 hours; read-out: IC50 of compounds of the invention for inhibition of Hsp90. How it is done: MV-4-11 cells (20,000 cells/well) were cultured in 96-well plates and maintained at 37° C. for several hours. The cells were treated with a compound of the invention or 17AAG (a positive control) at various concentrations and incubated at 37° C. for 72 hours. Cell survival was measured with Cell Counting Kit-8 (Dojindo Laboratories, Cat. # CK04).
Turning to `NC(=O)c1nnc2n1CC(Br)C(Br)Cc1cc(O)cc(O)c1-2` (stereo not drawn) [Compound 5, 6,7-dibromo-10,12-dihydroxy-5,6,7,8-tetrahydrobenzo[c][1,2,4]triazolo[4,3-a]azocine-3-carboxamide compound with dibromine (1:1)], the IC50 (as a rule, the concentration that inhibits the measured activity by half) is 23.4 µM. Turning to `NC(=O)c1nnc2n1C/C=C\Cc1cc(O)cc(O)c1-2` [Compound 3, (Z)-10,12-dihydroxy-5,8-dihydrobenzo[c][1,2,4]triazolo[4,3-a]azocine-3-carboxamide], the IC50 was 17 µM. As to `NC(=O)c1nnc2n1CCCc1cc(O)cc(O)c1-2` [Compound 12, 9,11-dihydroxy-6,7-dihydro-5H-benzo[c][1,2,4]triazolo[4,3-a]azepine-3-carboxamide], the IC50 worked out at 87.2 µM.

As for `NC(=O)c1nnc2n1CCCCc1cc(O)cc(O)c1-2` [Compound 2, 10,12-dihydroxy-5,6,7,8-tetrahydrobenzo[c][1,2,4]triazolo[4,3-a]azocine-3-carboxamide], the IC50 stood at 12.2 µM. The same measure, in the same setting: then `NC(=O)c1nnc2n1CC(O)C(O)Cc1cc(O)cc(O)c1-2` (stereo not drawn) [Compound 4, 6,7,10,12-tetrahydroxy-5,6,7,8-tetrahydrobenzo[c][1,2,4]triazolo[4,3-a]azocine-3-carboxamide], with 24.3 µM.

The values above are taken from US9156836B2, “Tricyclic triazole compounds that modulate HSP90 activity” (Synta Pharmaceuticals Corp., priority 2008, dated 2015).
